Data as given in PMC10574094, “Discovery of a SHP2 Degrader with In Vivo Anti-Tumor Activity” (Molecules, 2023).
Entries after “also recorded” stand apart in the source; their conditions may differ.

Columns and labels:
[1] = Tolerability and body weight in xenograft study; format: in vivo; conditions: mice, 25 mg/kg or 50 mg/kg daily IP
Experimental: Experiments on mice were carried out in accordance with the regulations of the Institutional Animal Care and Use Committees at Purdue University. All mice were housed under pathogen-free conditions in the animal facility and received autoclaved water and food. Eight to ten weeks-old Nude mice were used in the study.
For the xenograft tumor study, KYSE-520 cells were suspended in PBS and a total of 3 × 10^6 cells (100 μL) were subcutaneously implanted into both the left and right flank using a 27-gauge needle. Tumor volume was calculated using the formula V = (W^2 × L)/2 for caliper measurements. Once the tumor volume reaches 200 mm^3, daily intraperitoneal injection of either control, 25 mg/kg or 50 mg/kg of compound P9 was performed. Mice were sacrificed after injection for 18 days, and tumors were collected for biochemical analysis.

[2] = test system: KYSE-520 cells; assay: CCK-8 cell proliferation assay; format: cell-based; conditions: Homo sapiens, 168 h; KYSE-520, CCK-8, 7 days; read-out: growth inhibition IC50
Experimental: The cell proliferation inhibition EC50 was determined by CCK-8 assay. KYSE-520 cells were seeded at 5 × 10^3 cells/well in 96 well plates. After 24 h, P9 was added to the medium starting at 80 μM in a 2-fold dilution rate of 0.16 μM. After 7 days, 10 μL of CCK-8 test solution (APExBIO Technology, Houston, TX, USA) was added into each well and incubated for 2 h at 37 °C. The optical density (OD) at 450 nm was measured with a microplate reader (Molecular Device, Sunnyvale, CA, USA). The cell viability rate at different concentrations of P9 treatment was determined with Prism, version 9.5.1 (GraphPad, San Diego, CA, USA).

[3] = target: T1, full-length SHP2 (1-528) (Homo sapiens, UniProt Q06124); assay: SHP2 allosteric inhibition assay (DiFMUP substrate); format: biochemical
T1 construct: The SHP2 protein (Aa 1–528) was cloned into a pET-21a(+) vector; His; made in house; host or cells: E. coli BL21(DE3)
T1 sequence (Q06124 1-528): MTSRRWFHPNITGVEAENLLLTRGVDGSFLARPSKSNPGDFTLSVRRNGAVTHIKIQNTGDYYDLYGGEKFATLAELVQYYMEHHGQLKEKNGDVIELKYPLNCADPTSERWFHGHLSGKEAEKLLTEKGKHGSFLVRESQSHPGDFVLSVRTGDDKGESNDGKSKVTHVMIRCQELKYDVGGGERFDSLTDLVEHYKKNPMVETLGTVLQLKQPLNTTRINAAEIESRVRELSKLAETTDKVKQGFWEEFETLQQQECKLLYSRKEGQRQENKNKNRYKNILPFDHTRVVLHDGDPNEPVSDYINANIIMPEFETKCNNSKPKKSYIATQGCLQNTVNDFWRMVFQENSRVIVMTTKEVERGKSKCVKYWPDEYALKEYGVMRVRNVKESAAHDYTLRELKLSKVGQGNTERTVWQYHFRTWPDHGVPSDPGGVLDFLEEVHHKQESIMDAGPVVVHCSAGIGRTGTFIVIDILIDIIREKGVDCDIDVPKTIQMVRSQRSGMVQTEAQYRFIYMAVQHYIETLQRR
Experimental: The SHP2 protein (Aa 1–528) was cloned into a pET-21a(+) vector. Bacterial BL21(DE3) (Novagen) was used as an expression host, and the induction of protein expression was carried out in LB media with 1 mM IPTG at 18 °C overnight. Cell pellets were stored at −80 °C for subsequent protein purification. Protein purification was conducted at 4 °C. Frozen cell pellets were lysed by sonication in 40 mL cold lysis buffer (50 mM Tris-HCl, pH 8.0, 150 mM NaCl, 5 mM imidazole, and 1 mM PMSF) per liter cell pellet. Cell lysates were clarified by centrifuging for 15 min at 6000 rpm. The supernatant was incubated with HisPur Ni-NTA resin (Thermo Scientific, Waltham, MA, USA) for 2 h, and then packed onto a column and washed with 50 resin volume of buffer A (50 mM Tris-HCl, pH 8.0, 500 mM NaCl, 5 mM imidazole). The HIS-tagged proteins were eluted with Buffer B (50 mM Tris-HCl, pH = 8.0, 500 mM NaCl, 300 mM imidazole,). Pooled HIS-protein-containing fractions were concentrated, loaded onto a HiLoad 26/600 Superdex 75 column (GE Healthcare Biosciences, Piscataway, NJ, USA), and eluted with storage buffer (50 mM Tris-HCl, pH 8.0, 150 mM NaCl, 1 mM DTT, 10% glycerol). Proteins used for inhibition assays were purified using Ni-NTA resin (Qiagen, Hilden, Germany) followed by size exclusion column chromatography (ÄKTA pure, Cytiva, Marlborough, MA, USA) and the purity was determined to be >95% by SDS-PAGE and Coomassie staining. The protein was aliquoted and stored at −80 °C.
The catalytic activity of SHP2 (1-528) was assayed with 6,8-Difluoro-4-Methylumbelliferyl Phosphate (DiFMUP, Invitrogen, cat# D6567) as a substrate in 3,3-Dimethylglutaric acid (DMG) buffer (50 mM DMG, pH 7.0, 1 mM EDTA, 18 mM NaCl, 0.01% Triton X-100) at 25 °C. To determine the IC50 values, the assays were performed in 96-well plates (Corning Costar 3915). Series diluted compounds were incubated with 0.5 nM of SHP2 and 0.5 μM of peptide IRS1_pY1172(dPEG8)pY1222 (sequence H2N-LN(pY)IDLDLV(dPEG8)LST(pY)ASINFQK-amide). After 30 min incubation at room temperature, the substrate DiFMUP was added to the reaction (200 μM final concentration, total reaction volume is […]) and incubated at 25 °C for 10 min. The reaction was then quenched by adding 40 μL of 160 μM bpV(Phen) (Sigma–Aldrich, cat# SML0889) solution. The fluorescence signal was monitored with a CLARIOstar Plus Microplate Spectrophotometer (BMG Labtech) using excitation and emission wavelengths of 340 and 450 nm, respectively. The inhibitordose-response curves were analyzed using normalized IC50 regression curve fitting with control-based normalization. Data were fitted using Prism GraphPad 9.2.0.

## Cc1ncsc1-c1ccc([C@H](C)NC(=O)[C@@H]2C[C@@H](O)CN2C(=O)[C@@H](NC(=O)CCCCCCCCCN2CCN(C(=O)CCCCCC3(CN)CCN(c4cnc(Sc5cccc(Cl)c5Cl)c(N)n4)CC3)CC2)C(C)(C)C)cc1 [P9, (2S,4R)-1-((S)-2-(10-(4-(6-(1-(6-amino-5-((2,3-dichlorophenyl)thio)pyrazin-2-yl)-4-(aminomethyl)piperidin-4-yl)hexanoyl)piperazin-1-yl)decanamido)-3,3-dimethylbutanoyl)-4-hydroxy-N-((S)-1-(4-(4-methylthiazol-5-yl)phenyl)ethyl)pyrrolidine-2-carboxamide]
[1]
  tolerability: well tolerated
[1]; during treatment
  animal body weight: preserved; also recorded: no significant effect on mice body weight
[2]
  IC50: 640 ± 130 nM
[3]; Table S3, relative to SHP2
  Fold selectivity (SHP2): 1
[3]; full length SHP2, enzymatic assay
  IC50: 95 ± 3.4 nM
